In PubChem BioAssay (NCI):
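Five concentrations, 48 hours, 96-well plates. Definition used: TGI = concentration required for complete inhibition of growth.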

Legend:
Assay in all cases: DTP human tumour cell line panel, 48 h
A549 NSCLC = tested on: A549 NSCLC
ACHN renal = tested on: ACHN renal
NCI-H522 lung = tested on: NCI-H522 lung
MDA-MB-231 breast = tested on: MDA-MB-231 breast
UACC-257 melanoma = tested on: UACC-257 melanoma
HCT-15 colon = tested on: HCT-15 colon
UO-31 renal = tested on: UO-31 renal
SF-295 CNS = tested on: SF-295 CNS
SF-539 CNS = tested on: SF-539 CNS
KM12 colon = tested on: KM12 colon
SK-MEL-28 melanoma = tested on: SK-MEL-28 melanoma
MDA-MB-435 = tested on: MDA-MB-435
U251 CNS = tested on: U251 CNS
OVCAR-3 ovarian = tested on: OVCAR-3 ovarian
HT29 colon = tested on: HT29 colon
CCRF-CEM leukemia = tested on: CCRF-CEM leukemia
SNB-19 CNS = tested on: SNB-19 CNS
OVCAR-4 ovarian = tested on: OVCAR-4 ovarian
T-47D breast = tested on: T-47D breast
SK-MEL-2 melanoma = tested on: SK-MEL-2 melanoma
HL-60(TB) leukemia = tested on: HL-60(TB) leukemia
HOP-92 NSCLC = tested on: HOP-92 NSCLC
CAKI-1 renal = tested on: CAKI-1 renal
K-562 leukemia = tested on: K-562 leukemia
A498 renal = tested on: A498 renal
COLO 205 colon = tested on: COLO 205 colon
DU-145 prostate = tested on: DU-145 prostate
OVCAR-5 ovarian = tested on: OVCAR-5 ovarian
NCI-H23 lung = tested on: NCI-H23 lung
SR leukemia = tested on: SR leukemia
HCC-2998 colon = tested on: HCC-2998 colon
HCT-116 colon = tested on: HCT-116 colon
EKVX NSCLC = tested on: EKVX NSCLC
MDA-N = tested on: MDA-N
RPMI-8226 leukemia = tested on: RPMI-8226 leukemia
M14 melanoma = tested on: M14 melanoma
RXF 393 renal = tested on: RXF 393 renal
786-0 renal = tested on: 786-0 renal
BT-549 breast = tested on: BT-549 breast
NCI-H460 lung = tested on: NCI-H460 lung
SK-MEL-5 melanoma = tested on: SK-MEL-5 melanoma
PC-3 prostate = tested on: PC-3 prostate
OVCAR-8 ovarian = tested on: OVCAR-8 ovarian
SW-620 colon = tested on: SW-620 colon
LOX IMVI melanoma = tested on: LOX IMVI melanoma
HOP-62 NSCLC = tested on: HOP-62 NSCLC
NCI-H226 lung = tested on: NCI-H226 lung
MALME-3M melanoma = tested on: MALME-3M melanoma
MCF7 breast = tested on: MCF7 breast
SK-OV-3 ovarian = tested on: SK-OV-3 ovarian
NCI/ADR-RES ovarian = tested on: NCI/ADR-RES ovarian
SN12C renal = tested on: SN12C renal
HS 578T breast = tested on: HS 578T breast
TK-10 renal = tested on: TK-10 renal
SNB-75 CNS = tested on: SNB-75 CNS
UACC-62 melanoma = tested on: UACC-62 melanoma
IGROV1 ovarian = tested on: IGROV1 ovarian
SF-268 CNS = tested on: SF-268 CNS

O=C1C(Br)=CC2(C=C1Br)CCNC1=C2C(=O)c2ncccc2C1=O
TGI (A549 NSCLC): 3320 nM | TGI (ACHN renal): 1940 nM | TGI (NCI-H522 lung): 1060 nM | TGI (MDA-MB-231 breast): 3670 nM | TGI (UACC-257 melanoma): 1890 nM | TGI (HCT-15 colon): 2640 nM | TGI (UO-31 renal): 2350 nM | TGI (SF-295 CNS): 2740 nM | TGI (SF-539 CNS): 841 nM | TGI (KM12 colon): 3530 nM | TGI (SK-MEL-28 melanoma): 2170 nM | TGI (MDA-MB-435): 354 nM | TGI (U251 CNS): 5600 nM | TGI (OVCAR-3 ovarian): 4560 nM | TGI (HT29 colon): 4560 nM | TGI (CCRF-CEM leukemia): 6820 nM | TGI (SNB-19 CNS): 2770 nM | TGI (OVCAR-4 ovarian): 2480 nM | TGI (T-47D breast): 4480 nM | TGI (SK-MEL-2 melanoma): 380 nM | TGI (HL-60(TB) leukemia): 8260 nM | TGI (HOP-92 NSCLC): 4380 nM | TGI (CAKI-1 renal): 3140 nM | TGI (K-562 leukemia): 516 nM | TGI (A498 renal): 2620 nM | TGI (COLO 205 colon): 3600 nM | TGI (DU-145 prostate): 3060 nM | TGI (OVCAR-5 ovarian): 3090 nM | TGI (NCI-H23 lung): 1650 nM | TGI (SR leukemia): 2070 nM | TGI (HCC-2998 colon): 4230 nM | TGI (HCT-116 colon): 1740 nM | TGI (EKVX NSCLC): 3300 nM | TGI (MDA-N): 353 nM | TGI (RPMI-8226 leukemia): 2460 nM | TGI (M14 melanoma): 3010 nM | TGI (RXF 393 renal): 2650 nM | TGI (786-0 renal): 3110 nM | TGI (BT-549 breast): 2730 nM | TGI (NCI-H460 lung): 1460 nM | TGI (SK-MEL-5 melanoma): 1620 nM | TGI (PC-3 prostate): 8590 nM | TGI (OVCAR-8 ovarian): 4500 nM | TGI (SW-620 colon): 2730 nM | TGI (LOX IMVI melanoma): 1530 nM | TGI (HOP-62 NSCLC): 1730 nM | TGI (NCI-H226 lung): 3540 nM | TGI (MALME-3M melanoma): 2400 nM | TGI (MCF7 breast): 2780 nM | TGI (SK-OV-3 ovarian): 5800 nM | TGI (NCI/ADR-RES ovarian): 6170 nM | TGI (SN12C renal): 2500 nM | TGI (HS 578T breast): 5340 nM | TGI (TK-10 renal): 4730 nM | TGI (SNB-75 CNS): 2900 nM | TGI (UACC-62 melanoma): 1840 nM | TGI (IGROV1 ovarian): 2030 nM | TGI (SF-268 CNS): 4990 nM
